The data set in a line: Half life in CD1 mouse brain at 30 mg/kg, ip by LC-MS/MS analysis. Format: ADME, organism-based.

For the compound `O=C(CCc1ccc2c(c1)[nH]c1ccncc12)NCCOCCOCCNc1cccc2c1C(=O)N(C1CCC(=O)NC1=O)C2=O` (stereo unspecified), the half-life (usually the time in which the quantity being followed falls by half) was 46 min.

These data come from ChEMBL document CHEMBL4433222, “Treatment of Alzheimer's by PROTAC-Tau Protein Degradation” (ACS Med Chem Lett, 2019).
